# In US20080311594A1, “USE OF FIBROBLAST GROWTH FACTOR 7 (Fgf7) AND OF THE RECEPTOR Fgfr2b AS BIOMARKERS” (priority 2007, published 2008):
# Where two headings read alike, the source gives them in different places.
# B1: Fgf7: Fibroblast growth factor 7, secreted glycoprotein; recombinant Fgf7 added to culture medium (protein, UniProt P21781 32-194, looked up)
# Fibroblast growth factor 7: CNDMTPEQMATNVNCSSPERHTRSYDYMEGGDIRVRRLFCRTQWYLRIDKRGKVKGTQEMKNNYNIMEIRTVAVGIVAIKGVESEFYLAMNKEGKLYAKKECNEDCNFKELILENHYNTYASAKWTHNGGEMFVALNQKGIPVRGKKTKKEQKTAHFLPMAIT
# Tests used:
# [1] = biological target: T1, progesterone receptor (Homo sapiens, UniProt P06401); conditions: Fuhrmann et al., J. Med. Chem. 2000; cited from earlier work
# T1 sequence (P06401 1-933): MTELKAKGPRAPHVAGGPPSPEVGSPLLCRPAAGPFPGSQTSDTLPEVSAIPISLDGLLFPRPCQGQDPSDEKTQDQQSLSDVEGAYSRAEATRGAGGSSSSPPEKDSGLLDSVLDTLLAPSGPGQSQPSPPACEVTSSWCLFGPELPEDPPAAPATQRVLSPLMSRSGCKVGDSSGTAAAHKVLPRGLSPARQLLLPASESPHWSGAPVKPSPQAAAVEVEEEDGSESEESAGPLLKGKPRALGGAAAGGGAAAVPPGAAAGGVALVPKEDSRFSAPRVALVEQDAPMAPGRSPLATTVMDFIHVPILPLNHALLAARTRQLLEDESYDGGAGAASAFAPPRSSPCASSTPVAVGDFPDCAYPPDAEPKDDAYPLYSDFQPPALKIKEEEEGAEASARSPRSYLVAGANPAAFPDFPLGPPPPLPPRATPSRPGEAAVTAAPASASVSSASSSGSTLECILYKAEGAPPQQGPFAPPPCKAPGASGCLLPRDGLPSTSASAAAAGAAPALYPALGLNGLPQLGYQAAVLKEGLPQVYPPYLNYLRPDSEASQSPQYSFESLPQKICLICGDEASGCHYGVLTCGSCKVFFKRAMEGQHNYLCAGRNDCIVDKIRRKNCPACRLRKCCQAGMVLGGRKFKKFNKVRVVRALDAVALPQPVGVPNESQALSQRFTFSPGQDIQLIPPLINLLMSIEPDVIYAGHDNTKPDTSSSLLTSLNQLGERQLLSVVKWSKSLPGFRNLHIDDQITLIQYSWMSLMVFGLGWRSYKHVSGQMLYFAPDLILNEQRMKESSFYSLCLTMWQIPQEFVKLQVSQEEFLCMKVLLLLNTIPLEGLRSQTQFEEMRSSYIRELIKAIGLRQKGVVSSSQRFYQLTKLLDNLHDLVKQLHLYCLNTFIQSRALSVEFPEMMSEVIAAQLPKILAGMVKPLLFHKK
# [2] = tested on: Fgf7; test: Gene expression of Fgf7 in MXT tumours, GeneChip (Affymetrix) analysis; assay type: in vivo, mice; conditions: Example 1, non-responders (>100 mg) vs responders (<100 mg)
# Protocol: (§1) For further gene expression studies, the RNA of selected tumours was isolated and analysed further by GeneChip analyses and real-time PCR:
# (§2) The five largest tumours from the vehicle control group were selected.
# (§3) A limit was set in the ovariectomized group and that treated with 11β-(4-acetyl-phenyl)-17β-hydroxy-17α-(1,1,2,2,2-pentafluoroethyl)estra-4,9-dien-3-one: tumours having a weight higher than 100 mg were assessed as non-responders, and tumours with a weight less than 100 mg were classified as responders.
# [3] = tested on: MXT-M3 tumour; test: MXT-M3 tumour model in mice, tumour weight at end of test; assay type: in vivo
# Source text: For the test, an MXT-M3 tumour which was no longer strictly hormone-dependent was transplanted into mice.
# The MXT(+) tumour model was induced in C57BLxDBA2F1 mice by intraperitoneal administration of a urethane solution. The developing mammary tumour could be transplanted further to mice with the same genetic background (syngeneic) and is still an established model. The MXT(+) model is distinguished very particularly by the fact that the tumours express both ER and PR in physiological concentrations. Although there are other hormone receptor-positive tumour models, frequently ER and PR are not functional therein and show no translocation from the cytoplasm into the nucleus after stimulation. Nor is it possible to show growth inhibition by hormone ablation here. These models are unsuitable for investigating antihormonal substances (Watson, Medina et al. 1977).
# At the end of the test, the animals were sacrificed and the tumours were removed, and then the weight of the tumours was determined. The variation in the tumour weights is high in each group. The average tumour weights in the vehicle control group (427 mg) was 2.8 times higher than in the ovariectomized group (155 mg) and 2.2 times as high as in the group treated with 11β-(4-acetylphenyl)-17β-hydroxy-17α-(1,1,2,2,2-pentafluoroethyl)estra-4,9-dien-3-one (192 mg).
# as §3
# It was possible in the investigation of the tumour RNA of the in vivo experiment from Example 1 to identify biomarker candidates. To confirm these potential candidates, an independent animal experiment was carried out with the same study design, increasing the number of animals from ten to 20 per group. At the end of the test, the tumours were removed, the tumour weight was determined and the tumours were stored at −80° C. until RNA was isolated. The results are depicted in FIG. 2/5.
# (§4) Exactly as in Test 1, the limit for response to the therapy and the non-response was set here at a tumour weight of 100 mg. The five largest tumours were selected from the control group. The RNA was isolated from the tumours, and gene expression of the biomarker candidates was determined.
# [4] = tested on: Fgfr2; test: Gene expression of Fgfr2 in MXT tumours, real-time PCR; assay type: in vivo, mice; conditions: for Real-time regulation ZK-PRA NR versus vehicle control / Real-time regulation ZK-PRA R versus vehicle control: Fgfr2; for Real-time regulation ZK-PRA NR versus vehicle control: non-responder tumours; for Real-time regulation ZK-PRA R versus vehicle control: responder tumours
# Protocol: as §1, §2, §3, §4
# [5] = tested on: Fgfr2; test: Relative expression of Fgfr2 versus 18S rRNA in model cell lines; assay type: cell-based, human
# Source text: Relative Expression of Fgfr2 Versus 18S rRNA in 6 Model Cell Lines […]
# Expression of the receptor for fibroblast growth factor 7 (Fgf7) was not regulated in the sensitive T47-D cells on treatment with ZK-PRA (1.1 times higher on treatment with ZK-PRA). Expression in the ZK-PRA-resistant T47-D without treatment was twice as high as in the sensitive T47-D cells and declined somewhat with ZK-PRA treatment to 1.3 times the value of the untreated sensitive T47-D cells. Expression in all other cells was considerably less both in normal medium and on treatment with ZK-PRA: […]
# [6] = tested on: T47-D cells; test: Proliferation assay of T47-D cells with and without FGF7; assay type: cell-based, human; conditions: for growth (of maximum control): 10^−11 mol/l; for inhibition at 10 µM: 10^−5 mol/l
# Protocol: The influence of FGF7 on the activity of 11β-(4-acetylphenyl)-17β-hydroxy-17α-(1,1,2,2,2-pentafluoroethyl)estra-4,9-dien-3-one was investigated on T47-D cells. […] 50 ng/ml FGF7 were added to the medium, and the activity of ZK-PRA was determined in a proliferation assay.
# It was thus possible to inhibit growth by 58% through withdrawal of E2.
# T47-D cells proliferate only in the presence of E2, so that E2 ablation serves as check of maximum growth inhibition. In the proliferation test without Fgf7 it was thus possible to achieve a maximum inhibition of almost 60%. On addition of Fgf7 to the medium, the effect was substantially smaller and the inhibition was now only 29%. Fgf7 thus downregulates not only ER and PR, so that the target for antiestrogens and antiprogestagens is lost, but additionally acts per se as growth factor, so that antihormonal effects or ablation of hormones are compensated. Fgf7 is a potent biomarker candidate. […] This was confirmed in an independent, second in vivo experiment. Fgf7 is a unidirectional, paracrine factor which has a local effect, but is nevertheless secreted, so that investigation is required of whether an elevated Fgf7 serum level possibly correlates with a non-response to treatment with 11β-(4-acetylphenyl)-17β-hydroxy-17α-(1,1,2,2,2-pentafluoroethyl)-estra-4,9-dien-3-one.
# [7] = tested on: Fgf7; test: Gene expression of Fgf7 in MXT tumours, real-time PCR; assay type: in vivo, mice; conditions: for Real-time regulation ZK-PRA NR versus vehicle control / Real-time regulation ZK-PRA R versus vehicle control: Fgf7; for Real-time regulation ZK-PRA NR versus vehicle control: non-responder tumours; for Real-time regulation ZK-PRA R versus vehicle control: responder tumours
# Protocol: as §1, §2, §3, §4
# [8] = tested on: MCF-7 cells; conditions: recombinant Fgf7 added to the culture medium, Chang et al. 2006; cited from earlier work
# [9] = tested on: progesterone receptor (PR-A, PR-B) in T47-D cells; test: Western blot analysis of the progesterone receptor under the influence of FGF7; assay type: cell-based, human; conditions: Fgf7 20 and 50 ng/ml, 24 h and 72 h
# Protocol: It is reported in the literature that FGF7 downregulates both ER and PR. In order to detect this effect, cells were incubated in medium with various amounts of FGF7 for 24 h and 72 h, and then the PR content was determined.
molecule,measurement,setting,value
"CC(=O)c1ccc([C@H]2C[C@@]3(C)[C@@H](CC[C@@]3(O)C(F)(F)C(F)(F)F)[C@@H]3CCC4=CC(=O)CCC4=C32)cc1 [ZK-PRA, 11β-(4-acetylphenyl)-17β-hydroxy-17α-(1,1,2,2,2-pentafluoroethyl)estra-4,9-dien-3-one]",antiprogestational activity,[1],high antiprogestational activity
same,Affymetrix regulation ZK-PRA NR versus ZK-PRA R,[2],2.30 (±0.33)
same,average tumour weight,"[3]; Example 1, treated group, end of test",192 mg
same,average tumour weight of vehicle control group relative to treated group,"[3]; Example 1, vehicle 427 mg",2.2 times
same,average tumour weight,"[3]; Example 2 confirmation experiment, treated group",215 mg
same,average tumour weight of vehicle control group relative to treated group,"[3]; Example 2 confirmation experiment, vehicle 577 mg",2.7 times
same,"Fgfr2 expression, non-responders vs. control",[4]; Example 1,55%
same,"Fgfr2 expression, responder tumours vs. control",[4]; Example 1,30%
same,Real-time regulation ZK-PRA NR versus vehicle control,[4]; Example 1,0.55 (±0.30)
same,Real-time regulation ZK-PRA R versus vehicle control,[4]; Example 1,0.30 (±0.07)
same,Real-time regulation ZK-PRA NR versus vehicle control,[4]; Example 2 confirmation,0.25 (±0.20)
same,Real-time regulation ZK-PRA R versus vehicle control,[4]; Example 2 confirmation,0.47 (±0.34)
same,Fgfr2 mRNA on treatment compared with untreated T47-D cells,[5]; BT-474 cells,37 times lower
same,Fgfr2 mRNA on treatment compared with untreated sensitive T47-D cells,[5]; MCF-7 cells,153 times lower
same,Fgfr2 expression on treatment relative to untreated sensitive T47-D cells,[5]; ZK-PRA-resistant T47-D cells,1.3 times
same,Fgfr2 expression on treatment compared with T47-D under normal conditions,[5]; ZR75-1 cells,9.4 times lower
same,Fgfr2 expression on treatment relative to untreated,[5]; sensitive T47-D cells,1.1 times higher
same,growth (of maximum control),[6]; FGF7 50 ng/ml,114%
same,growth (of maximum control),[6]; without FGF7,114%
same,maximum growth inhibition,"[6]; Fgf7 50 ng/ml in the culture medium, no dose-response relation",about 20%
same,inhibition at 10 µM,"[6]; Homo sapiens, T47D, FGF7 50 ng/ml in the medium, read-out: growth inhibition",24%
same,inhibition at 10 µM,"[6]; Homo sapiens, T47D, without FGF7, maximum control (E2) = 100%, read-out: growth inhibition",42%
same,inhibition at 1 µM,"[6]; Homo sapiens, T47D, 10^−6 mol/l, without FGF7, read-out: growth inhibition",47%
same,inhibition at 0.1 µM,"[6]; Homo sapiens, T47D, 10^−7 mol/l, without FGF7, read-out: growth inhibition",50%
same,growth inhibition,"[6]; next lower concentration after 10^−5 mol/l, FGF7 50 ng/ml",18%
same,activity in the proliferation assay,"[6]; sensitive T47-D cells, without FGF7",good activity
same,Fgf7 expression in non-responder tumours relative to vehicle controls,[7]; Example 1,3.12 times
same,Fgf7 expression in responder tumours compared with the controls,[7]; Example 1,70%
same,Real-time regulation ZK-PRA NR versus vehicle control,[7]; Example 1,3.12 (±0.68)
same,Real-time regulation ZK-PRA R versus vehicle control,[7]; Example 1,0.69 (±0.38)
same,Real-time regulation ZK-PRA NR versus vehicle control,[7]; Example 2 confirmation,3.25 (±1.91)
same,Real-time regulation ZK-PRA R versus vehicle control,[7]; Example 2 confirmation,1.72 (±0.68)
CC/C(=C(\c1ccccc1)c1ccc(OCCN(C)C)cc1)c1ccccc1 [tamoxifen],activity in proliferation tests,[8],no activity
B1,amount of PR (Western blot),[9],distinct decrease in PR
